# According to patent US10538516B2, “Oxadiazole derivative and pharmaceutical containing same” (National Center for Geriatrics and Gerontology, priority 2015, dated 2020):
# Where two headings read alike, the source gives them in different places.
# Target: T1, GAβ-dependent amyloid fibril formation (Human Aβ1-40 + GM1-containing liposome) (Homo sapiens, UniProt P05067)
# T1 construct: Human Aβ1-40 (cat. #4307-v, prepared by Peptide Institute); purchased Peptide Institute 4307-v
# Assay: Thioflavin T (ThT) assay of GAβ-dependent amyloid fibril formation (Aβ1-40 with GM1-containing liposome)
# Assay type: biochemical
# Procedure, shortened: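 Human Aβ1-40 (75 μM stock) pre-incubated 10 min at room temperature with compound (75 or 15 μM solution), then GM1-containing cholesterol/sphingomyelin liposome added and incubated 37° C, 18 hours. Fibrils quantified by ThT fluorescence (ex 430/em 490 nm, pH 8.5 glycine buffer); inhibition as ratio to compound-free control.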
# [1] = @25 μM, read-out: ThT Inhibitory activity (% inhibition)
# [2] = inhibition rate against amyloid fibril formation, final concentration of the compound 25 μM, read-out: Inhibitory activity ABC evaluation
# T1 sequence (P05067 672-711 limits assumed): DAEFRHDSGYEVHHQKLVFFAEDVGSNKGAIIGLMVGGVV
inhibition at 25 µM [2] [%],Compound,other results
40 to 80,"O=C(N[C@@H](CO)c1nc(-c2cccc(C(F)(F)F)c2)no1)c1ccc(F)c(Cl)c1 [Compound 242, 3-chloro-4-fluoro-N-[(1S)-2-hydroxy-1-{3-[3-(trifluoromethyl)phenyl]-1,2,4-oxadiazol-5-yl}ethyl]benzamide]",inhibition at 25 µM [1]: 59%
> 80,"O=C(N[C@@H](CO)c1nc(-c2ccc(C(F)(F)F)cc2)no1)c1ccc(Cl)s1 [Compound 198, 5-chloro-N-[(1S)-2-hydroxy-1-{3-[4-(trifluoromethyl)phenyl]-1,2,4-oxadiazol-5-yl}ethyl]thiophene-2-carboxamide]",–
< 40,"O=C(NC1(c2nc(-c3ccc(OC(F)(F)F)cc3)no2)CCCC1)c1ccc(Cl)nc1 [Compound 31, 6-chloro-N-(1-[3-{4-(trifluoromethoxy)phenyl}-1,2,4-oxadiazol-5-yl]cyclopentyl) nicotinamide]",–
40 to 80,"O=C1CC(c2nnc(-c3ccc(OC(F)(F)F)cc3)o2)CN1c1ccc(Cl)cc1 (stereo not drawn) [Compound 103, 1-(4-chlorophenyl)-4-{5-[4-(trifluoromethoxy)phenyl]-1,3,4-oxadiazol-2-yl}pyrrolidin-2-one]",–
40 to 80,"CCCN(C(=O)CCc1nc(-c2ccc(O)cc2)no1)c1cccc(Cl)c1 [Compound 19, N-(3-chlorophenyl)-3-{3-(4-hydroxyphenyl)-1,2,4-oxadiazol-5-yl}-N-propylpropanamide]",–
40 to 80,"O=C(N[C@@H](CO)c1nc(-c2c[nH]c3ccc(Cl)cc23)no1)c1ccc(F)cc1 [Compound 233, N-[(1S)-1-[3-(5-chloro-1H-indol-3-yl)-1,2,4-oxadiazol-5-yl]-2-hydroxyethyl]-4-fluorobenzamide]",–
< 40,O=C(N[C@@H](CO)c1nc(-c2ccc(OCC(F)(F)F)cc2)no1)c1ccc(F)cc1 [Compound 216],–
–,"O=C(NC(CO)c1nc(-c2ccc(C(F)(F)F)cc2)no1)c1ccc(F)cc1 (stereo in doubt) [Compound 152, 4-fluoro-N-[(1R)-2-hydroxy-1-{3-[4-(trifluoromethyl)phenyl]-1,2,4-oxa-diazol-5-yl}ethyl] benzamide]","Inhibitory activity ABC evaluation (inhibition rate against amyloid fibril formation, final concentration of the compound 25 μM, 25 µM): B (40% or more and less than 80% were evaluated as B)"
40 to 80,"O=C1CC(c2nc(-c3ccccc3OC(F)(F)F)no2)CN1c1ccc(Cl)cc1 (stereo not drawn) [Compound 67, 1-(4-chloro-phenyl)-4-[3-{2-(trifluoro-methoxy)phenyl}-1,2,4-oxadiazol-5-yl]pyrrolidin-2-one]",–
–,"O=C(N[C@@H](CO)c1nc(-c2ccc(C(F)(F)F)cn2)no1)c1ccc(Cl)cc1 [Compound 205, 4-chloro-N-[(1S)-2-hydroxy-1-{3-[5-(trifluoromethyl)pyridin-2-yl]-1,2,4-oxadiazol-5-yl}ethyl]benzamide]","Inhibitory activity ABC evaluation (inhibition rate against amyloid fibril formation, final concentration of the compound 25 μM): B (40% or more and less than 80% were evaluated as B)"
> 80,"O=C(N[C@@H](CO)c1nc(-c2ccc(OC(F)(F)F)cc2)no1)c1ccccc1 [Compound 92, (S)-N-(2-hydroxy-1-[3-{4-(tri-fluoromethoxy)phenyl}-1,2,4-oxadiazol-5-yl]ethyl)benzamide]","inhibition at 5 µM (@5 μM, read-out: ThT Inhibitory activity (% inhibition)): 51%; inhibition at 25 µM [1]: 81%"
40 to 80,"Nc1[nH]cnc1-c1noc([C@H](CO)NC(=O)c2ccc(F)cc2)n1 [Compound 258, N-[(1S)-1-[3-(5-amino-1H-imidazol-4-yl)-1,2,4-oxadiazol-5-yl]-2-hydroxyethyl]-4-fluorobenzamide]",–
< 40,"O=C(Nc1nc(-c2ccc(C(F)(F)F)cc2)no1)c1ccccc1 [Compound 174, N-{3-[4-(trifluoromethyl)phenyl]-1,2,4-oxadiazol-5-yl} benzamide]",–
40 to 80,"O=C(N[C@@H](CO)c1nc(-c2cc(F)cc(F)c2)no1)c1ccc(F)cc1 [Compound 218, N-[(1S)-1-[3-[3,5-difluorophenyl)-1,2,4-oxadiazol-5-yl]-2-hydroxyethyl]-4-fluorobenzamide]",–
40 to 80,"O=C1CC(c2nc(-c3ccc(OC(F)(F)F)cc3)no2)CN1c1ccc(Cl)nc1 (stereo not drawn) [Compound 48, 1-(6-chloropyridin-3-yl)-4-[3-{4-(trifluoro-methoxy)phenyl}-1,2,4-oxadiazol-5-yl] pyrrolidin-2-one]",–
40 to 80,"O=C(N[C@@H](CO)c1noc(-c2ccc(OC(F)(F)F)cc2)n1)c1ccccc1 [Compound 128, (R)-N-(2-hydroxy-1-(5-(4-(trifluoro-methoxy)phenyl)-1,2,4-oxadiazol-3-yl)ethyl)benzamide]",–
< 40,"O=C(NC1(c2nc(-c3ccc(OC(F)(F)F)cc3)no2)CCCC1)c1cccc(Cl)c1 [Compound 35, 3-chloro-N-(1-[3-{4-(trifluoromethoxy)phenyl}-1,2,4-oxadiazol-5-yl]cyclopentyl) benzamide]",–
> 80,"C[C@@H](O)[C@H](NC(=O)c1ccc(Cl)cc1)c1nc(-c2ccc(OC(F)(F)F)cc2)no1 [Compound 80, 4-chloro-N-((1S,2R)-2-hydroxy-1-[3-{4-(trifluoro-methoxy)phenyl}-1,2,4-oxadiazol-5-yl]propyl) benzamide]",inhibition at 25 µM [1]: 80%

inhibition at 25 µM [2] [%],Compound,other results
40 to 80,"O=C(N[C@@H](CO)c1nc(-c2nc3ccc(O)cc3s2)no1)c1ccc(F)cc1 [Compound 259, 4-fluoro-N-[(1S)-2-hydroxy-1-[3-(6-hydroxy-1,3-benzothiazol-2-yl)-1,2,4-oxadiazol-5-yl]ethyl] benzamide]",–
40 to 80,"O=C(N[C@@H](CO)c1nc(-c2ccccc2C(F)(F)F)no1)c1ccccc1 [Compound 189, N-[(1S)-2-hydroxy-1-{3-[2-(trifluoromethyl)phenyl]-1,2,4-oxadiazol-5-yl}ethyl]benzamide]",–
< 40,"O=C1CC(c2nnc(-c3ccc(OC(F)(F)F)cc3)[nH]2)CN1c1ccc(Cl)cc1 (stereo not drawn) [Compound 123, 1-(4-chlorophenyl)-4-{5-[4-(trifluoromethoxy)phenyl]-4H-1,2,4-triazol-3-yl}pyrrolidin-2-one]",–
40 to 80,"O=C(N[C@@H](CO)c1nc(-c2ccc(O)c(F)c2)no1)c1ccc(Cl)cc1 [Compound 99, (S)-4-chloro-N-(1-(3-(3-fluoro-4-hydroxyphenyl)-1,2,4-oxadiazol-5-yl)-2-hydroxy-ethyl)benzamide]",–
40 to 80,"O=S(=O)(N[C@@H](CO)c1nc(-c2ccc(OC(F)(F)F)cc2)no1)c1cccc(Cl)c1 [Compound 91, (S)-3-chloro-N-(2-hydroxy-1-[3-{4-(trifluoromethoxy)phenyl}-1,2,4-oxadiazol-5-yl]ethyl)benzenesulfonamide]",–
40 to 80,"O=C(N[C@@H](CO)c1nc(-c2c[nH]c3ccc(C(F)(F)F)cc23)no1)c1ccc(F)cc1 [Compound 262, 4-fluoro-N-[(1S)-2-hydroxy-1-{3-[5-(trifluoromethyl)-1H-indol-3-yl]-1,2,4-oxadiazol-5-yl}ethyl] benzamide]",–
40 to 80,"CN(C(=O)CCc1nc(-c2ccc(O)cc2)no1)c1cccc(Cl)c1 [Compound 13, N-(3-chloropbenyl)-3-{3-(4-hydroxyphenyl)-1,2,4-oxadiazol-5-yl}-N-methylpropanamide]",–
40 to 80,"O=C1CC(c2nc(-c3ccc(OCF)cc3)no2)CN1c1ccc(Cl)cc1 (stereo not drawn) [Compound 53, 1-(4-chlorophenyl)-4-[3-{4-(fluoromethoxy)phenyl}-1,2,4-oxadiazol-5-yl]pyrrolidin-2-one]",–
40 to 80,"O=C(N[C@@H](CO)c1nc(-c2nccc3ccccc23)no1)c1ccc(F)cc1 [Compound 226, 4-fluoro-N-[(1S)-2-hydroxy-1-[3-(isoquinolin-1-yl)-1,2,4-oxadiazol-5-yl]ethyl]benzamide]",–
40 to 80,"CN(C(=O)CCc1nc(-c2ccc(OC(F)(F)F)cc2)no1)c1cccc(Cl)c1 [Compound 11, N-(3-chlorophenyl)-N-methyl-3-[3-{4-(trifluoromethoxy)phenyl}-1,2,4-oxadiazol-5-yl]propanamide]",–
< 40,"CN(Cc1ccccc1)C(=O)CCc1nc(-c2ccc3c(c2)OCCO3)no1 [Compound 16, N-benzyl-3-{3-(2,3-dihydrobenzo[b][1,4]dioxin-6-yl)-1,2,4-oxadiazol-5-yl}-N-methylpropanamide]",–
< 40,"O=C(N[C@H](CO)c1nc(-c2ccc(C(F)(F)F)cc2)no1)c1ccccc1 [Compound 213, N-[(1R)-2-hydroxy-1-{3-[4-(trifluoromethyl)phenyl]-1,2,4-oxadiazol-5-yl}ethyl]benzamide]",–
< 40,"CNC(=O)C[C@H](NC(=O)c1ccc(Cl)cc1)c1nc(-c2ccc(OC(F)(F)F)cc2)no1 [Compound 88, (S)-4-chloro-N-(3-(methylamino)-3-oxo-1-[3-{4-(trifluoromethoxy)phenyl}-1,2,4-oxadiazol-5-yl]propyl) benzamide]",–
40 to 80,O=C(N[C@@H](CO)c1nc(-c2c[nH]c3ccc(F)cc23)no1)c1ccc(F)cc1 [Compound 234],–
> 80,"O=C(N[C@@H](CO)c1nc(-c2ccc(C(=O)C(F)(F)F)cc2)no1)c1ccc(F)cc1 [Compound 164, 4-fluoro-N-[(1S)-2-hydroxy-1-{3-[4-(2,2,2-trifluoroacetyl)phenyl]-1,2,4-oxadiazol-5-yl}ethyl] benzamide]",–
> 80,"O=C(N[C@@H](CO)c1nc(-c2cccc(C(F)(F)F)c2)no1)c1ccc(N2CCCC2)cc1 [Compound 221, N-[(1S)-2-hydroxy-1-{3-[3-(trifluoromethyl)phenyl]-1,2,4-oxadiazol-5-yl}ethyl]-4-(pyrrolidin-1-yl) benzamide]",–
< 40,"CN(Cc1cccc(F)c1)C(=O)CCc1nc(-c2ccc(O)cc2)no1 [Compound 14, N-(3-fluorobenzyl)-3-{3-(4-hydroxyphenyl)-1,2,4-oxadiazol-5-yl}-N-methylpropanamide]",–
